These results are taken from ChEMBL document CHEMBL1201862, “PubChem BioAssay data set” (2004).

Structures are written as SMILES.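 Cultured in 96-well plates, cells were exposed to test compound for 48 hours across five concentrations. GI50: concentration for 50% inhibition of growth.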 The source made the active and inactive calls. Rule as the data show it: active = GI50 up to about 1.1 µM and inactive = higher.

Among the test systems are COLO 205; LOX IMVI; A549; UACC-257; OVCAR-8; SR; HOP-92; SW-620; MDA-N; KM12; NCI/ADR-RES; HCC 2998; HCT-15; TK-10; PC-3; A498; K562; HL-60; SK-MEL-28; OVCAR-3.
Common to all, as to experiment: growth of human tumour cells (NCI), 48 h

As for `COC(=O)c1c([N+](=O)[O-])ncn1[C@H]1OC[C@@H](OC(C)=O)[C@@H](OC(C)=O)[C@@H]1OC(C)=O`, the GI50 in the assay on COLO 205, in the assay on LOX IMVI, in the assay on A549, with UACC-257, with OVCAR-8 and in the assay on SR was > 100 µM (inactive) each time. The GI50 in the assay with HOP-92, with SW-620, in the assay with MDA-N, with KM12, with NCI/ADR-RES and with HCC 2998 was > 100 µM (inactive) in each case. Also, the GI50 in the assay with HCT-15 is more than 100 µM; with TK-10 it was > 100 µM (inactive); in the assay with PC-3, > 100 µM (inactive); in the assay on A498, > 100 µM (inactive); in the assay with K562, > 100 µM (inactive); in the assay with HL-60, > 100 µM (inactive). The GI50 with SK-MEL-28 and in the assay on OVCAR-3 was > 100 µM (inactive) in each case.

On to `Nc1ccccc1OCCCOc1ccccc1N`, for which the GI50 in the assay on COLO 205 is > 100 µM (inactive); with LOX IMVI it was > 100 µM (inactive); with A549, > 100 µM (inactive); with UACC-257 it was > 100 µM (inactive); with OVCAR-8 it was > 100 µM (inactive); with SR, 88.5 µM (inactive). Moreover, the GI50 is > 100 µM (inactive) in the assay on HOP-92; > 100 µM (inactive) in the assay with SW-620; 51.8 µM (inactive) in the assay with MDA-N; > 100 µM (inactive) in the assay on KM12; > 100 µM (inactive) with NCI/ADR-RES; > 100 µM (inactive) in the assay on HCC 2998. In addition, the GI50 is more than 100 µM in the assay with HCT-15; > 100 µM (inactive) in the assay with TK-10; > 100 µM (inactive) with PC-3; > 100 µM (inactive) with A498; > 100 µM (inactive) in the assay with K562; > 100 µM (inactive) with HL-60. Also, the GI50 in the assay on SK-MEL-28 and in the assay with OVCAR-3 was > 100 µM (inactive) throughout.

`CC(=O)c1c(C)cn(S(=O)(=O)NC(=O)Nc2nncs2)c1C`: the GI50 in the assay on COLO 205, in the assay on LOX IMVI, in the assay on A549, with UACC-257, in the assay on OVCAR-8 and with SR was > 100 µM (inactive) each time. The GI50 in the assay on HOP-92, with SW-620, in the assay with MDA-N, in the assay on KM12, with NCI/ADR-RES and in the assay on HCC 2998 was > 100 µM (inactive) in each case. The GI50 in the assay with HCT-15 is more than 100 µM; in the assay with TK-10, > 100 µM (inactive); with PC-3 it was > 100 µM (inactive); in the assay on A498, > 100 µM (inactive); in the assay with K562, > 100 µM (inactive); in the assay with HL-60, > 100 µM (inactive). The GI50 in the assay with SK-MEL-28 and in the assay on OVCAR-3 was > 100 µM (inactive) each time.

With `S=C(N/N=C(/c1ccccc1)c1ccccn1)Nc1ccc(Cl)cc1`, the GI50 in the assay on COLO 205 was 0.0418 µM (active); in the assay on LOX IMVI, 0.164 µM (active); in the assay on A549, 1.97 µM (inactive); in the assay on UACC-257, 0.0569 µM (active); with OVCAR-8, 0.0444 µM (active); in the assay with SR it was < 0.0204 µM (active). Further, the GI50 is 2.11 µM (inactive) in the assay with HOP-92; 0.0423 µM (active) in the assay with SW-620; 1.09 µM (active) with MDA-N; 1.07 µM (active) in the assay on KM12; 0.195 µM (active) in the assay with NCI/ADR-RES; 1.88 µM (inactive) in the assay on HCC 2998. For the same molecule, the GI50 in the assay with HCT-15 was 0.067 µM; in the assay on TK-10, 0.551 µM (active); in the assay with PC-3 it was 0.0476 µM (active); in the assay with A498 it was 3.3 µM (inactive); with K562, < 0.01 µM (active); in the assay with HL-60, < 0.01 µM (active). Moreover, the GI50 in the assay on SK-MEL-28 is 2.28 µM (inactive); with OVCAR-3 it was < 0.0316 µM (active).

On to `CN(C)C(=S)/N=c1\ssc(=S)n1Cc1cccs1`, for which the GI50 in the assay with COLO 205 is 2.36 µM (inactive); with LOX IMVI it was 4.06 µM (inactive); with A549, 5.27 µM (inactive); with UACC-257, 6.76 µM (inactive); with OVCAR-8, 4.99 µM (inactive); in the assay on SR, 4.88 µM (inactive). In addition, the GI50 is 5.26 µM (inactive) in the assay with HOP-92; 2.07 µM (inactive) in the assay with SW-620; 0.604 µM (active) with MDA-N; 3.39 µM (inactive) with KM12; 1.08 µM (active) in the assay with NCI/ADR-RES; 6.7 µM (inactive) in the assay on HCC 2998. In addition, the GI50 was 2.84 µM in the assay with HCT-15; 8.24 µM (inactive) in the assay with TK-10; 2.4 µM (inactive) in the assay with PC-3; 4.13 µM (inactive) in the assay on A498; 2.1 µM (inactive) with K562; 2.44 µM (inactive) in the assay on HL-60. For the same molecule, the GI50 in the assay on SK-MEL-28 is 8.41 µM (inactive); with OVCAR-3 it was 1.76 µM (inactive).

As for `O=C(NCCc1ccccc1)c1cc(/C=C/c2cc(O)ccc2O)ccc1O`, the GI50 is 5.61 µM (inactive) in the assay on COLO 205; 4.17 µM (inactive) in the assay on LOX IMVI; 10.3 µM (inactive) in the assay on A549; 2.64 µM (inactive) in the assay with UACC-257; 3.85 µM (inactive) in the assay with OVCAR-8; 3.01 µM (inactive) in the assay with SR. Further, the GI50 was 1.87 µM (inactive) with HOP-92; 5.71 µM (inactive) in the assay on SW-620; 2.96 µM (inactive) in the assay with MDA-N; 6.05 µM (inactive) in the assay with KM12; 3.43 µM (inactive) in the assay on NCI/ADR-RES; 10.1 µM (inactive) in the assay with HCC 2998. Besides, the GI50 with HCT-15 was 2.71 µM; with TK-10 it was 2.93 µM (inactive); in the assay with PC-3 it was 3.56 µM (inactive); with A498, 4.4 µM (inactive); in the assay with K562, 2.59 µM (inactive); in the assay with HL-60, 2.12 µM (inactive). For the same molecule, the GI50 is 3.08 µM (inactive) in the assay on SK-MEL-28 and 2.67 µM (inactive) with OVCAR-3.
